Laboratory results from patent publication US6706664B1, “Benzoxazole compounds, process for the preparation thereof and herbicides” (UBE Industries, Ltd., priority 1999, dated 2004).

Experiments:
Set-up in all cases: key: 0: normal development; 1: Less damaged; 2: Slightly damaged; 3: Moderately damaged; 4: Severely damaged; 5: All killed
barnyardgrass [1] = test: Soil treatment test for upland field; format: in vivo, Echinochloa crusgalli; conditions: 500 g/ha, glass house 25° C., 3 weeks
Source text: (§1) (0: normal development, 1: Less damaged, 2: Slightly damaged, 3: Moderately damaged, 4: Severely damaged, 5: All killed).
(§2) Wagner pots, each having an area of 1/5000 are, were packed with Ube soil (alluvial soil), and then each seed of corn, soybean, cotton, wheat, solgum, sugar beat, Large crabgrass, barnyardgrass, green foxtail, blackgrass, annual bluegrass, common lambsquartes, livid amaranth and velvetleaf were planted and covered with soil.
(§3) Each wettable powder of the desired compounds (I) shown in Table 1 prepared in accordance with Example 2 was diluted with water containing a surfactant (0.05%) and uniformly sprayed on the surface of each soil so that an effective concentration of the compound (I) in each herbicide became 500 g/ha. These plants were controlled in a glass house at an average temperature of 25° C. for 3 weeks, and then herbicidal effects thereof were investigated.
(§4) The herbicidal effects were evaluated according to the evaluation method described in the above (1).

cotton = test: Soil treatment test for upland field; format: in vivo; conditions: 500 g/ha, glass house 25° C., 3 weeks
Source text: as §1, §2, §3, §4

sugar beat [2] = test: Soil treatment test for upland field; format: in vivo; conditions: 500 g/ha, glass house 25° C., 3 weeks
Source text: as §1, §2, §3, §4

soybean = test: Soil treatment test for upland field; format: in vivo; conditions: 500 g/ha, glass house 25° C., 3 weeks
Source text: as §1, §2, §3, §4

corn [3] = test: Soil treatment test for upland field; format: in vivo; conditions: 500 g/ha, glass house 25° C., 3 weeks
Source text: as §1, §2, §3, §4

wheat [4] = test: Soil treatment test for upland field; format: in vivo; conditions: 500 g/ha, glass house 25° C., 3 weeks
Source text: as §1, §2, §3, §4

solgum [5] = test: Soil treatment test for upland field; format: in vivo; conditions: 500 g/ha, glass house 25° C., 3 weeks
Source text: as §1, §2, §3, §4

monochoria = test: Herbicidal test for paddy field; format: in vivo, Monochoria vaginalis; conditions: paddy field pot, 500 g/ha dropwise at 1.5 leaf stage of barnyardgrass, 3 weeks, rank vs non-treated
Protocol: (§5) Wagner pots, each having an area of 1/5000 are, were packed with Ube soil (alluvial soil) and planted with seeds or tubers of young rice plant, barnyardgrass, bulrush, flat sedge and monochoria. Then, the pots were filled with water to a depth of 3 cm.
(§6) Each wettable powder of the desired compounds (I) shown in Table 1 prepared in accordance with Example 2 was diluted with water containing a surfactant (0.05%) and subjected to dropwise addition treatment by using pipet so that an effective concentration of the compound (I) in each herbicide became 500 g/ha at 1.5 leaf stage of barnyardgrass.
(§7) These plants were controlled in a glass house at an average temperature of 25° C. for 3 weeks, and then herbicidal effects thereof were investigated.
(§8) The herbicidal effects are evaluated according to the following 6 ranks as compared with non-treated district.
as §1

annual bluegrass = test: Soil treatment test for upland field; format: in vivo, Poa annua; conditions: 500 g/ha, glass house 25° C., 3 weeks
Source text: as §1, §2, §3, §4

bulrush = test: Herbicidal test for paddy field; format: in vivo, Scrips juncoides; conditions: paddy field pot, 500 g/ha dropwise at 1.5 leaf stage of barnyardgrass, 3 weeks, rank vs non-treated
Protocol: as §5, §6, §7, §8, §1

livid amaranth [6] = test: Soil treatment test for upland field; format: in vivo, Amaranthus lividus; conditions: 500 g/ha, glass house 25° C., 3 weeks
Source text: as §1, §2, §3, §4

blackgrass = test: Soil treatment test for upland field; format: in vivo, Alopecurus aegualis; conditions: 500 g/ha, glass house 25° C., 3 weeks
Source text: as §1, §2, §3, §4

barnyardgrass [7] = test: Herbicidal test for paddy field; format: in vivo, Echinochloa crusgalli; conditions: paddy field pot, 500 g/ha dropwise at 1.5 leaf stage of barnyardgrass, 3 weeks, rank vs non-treated
Protocol: as §5, §6, §7, §8, §1

common lambsquartes [8] = test: Soil treatment test for upland field; format: in vivo, Chenopodium album; conditions: 500 g/ha, glass house 25° C., 3 weeks
Source text: as §1, §2, §3, §4

green foxtail = test: Soil treatment test for upland field; format: in vivo, Setaria viridis; conditions: 500 g/ha, glass house 25° C., 3 weeks
Source text: as §1, §2, §3, §4

young rice plant = test: Herbicidal test for paddy field; format: in vivo; conditions: paddy field pot, 500 g/ha dropwise at 1.5 leaf stage of barnyardgrass, 3 weeks, rank vs non-treated
Protocol: as §5, §6, §7, §8, §1

Large crabgrass = test: Soil treatment test for upland field; format: in vivo, Digitaria adscendens; conditions: 500 g/ha, glass house 25° C., 3 weeks
Source text: as §1, §2, §3, §4

velvetleaf [9] = test: Soil treatment test for upland field; format: in vivo, Abutilon theophrasti; conditions: 500 g/ha, glass house 25° C., 3 weeks
Source text: as §1, §2, §3, §4

common lambsquartes [10] = test: Foliar spread test for upland field; format: in vivo, Chenopodium album; conditions: foliar spray 500 ppm, 3 weeks, rank vs non-treated
Source text: as §1
(§9) Wagner pots, each having an area of 1/5000 are, were packed with volcanic ash soil and then each seed of corn, soybean, cotton, wheat, solgum, sugar beat, Large crabgrass, barnyardgrass, green foxtail, blackgrass, annual bluegrass, common lambsquartes, livid amaranth, velvetleaf and morning glory was planted, covered with soil and grown in a glass house at an average temperature of […] for about 2 weeks.
(§10) Each wettable powder of the desired compounds (I) shown in Table 1 prepared in accordance with Example 2 was diluted to 500 ppm with water containing a surfactant (0.5%) and then uniformly sprayed on the above respective plants.
(§11) After these plants were controlled in a glass house at an average temperature of 25° C. for 3 weeks, the herbicidal effects thereof were investigated.
as §4

velvetleaf [11] = test: Foliar spread test for upland field; format: in vivo, Abutilon theophrasti; conditions: foliar spray 500 ppm, 3 weeks, rank vs non-treated
Source text: as §1, §9, §10, §11, §4

livid amaranth [12] = test: Foliar spread test for upland field; format: in vivo, Amaranthus lividus; conditions: foliar spray 500 ppm, 3 weeks, rank vs non-treated
Source text: as §1, §9, §10, §11, §4

sugar beat [13] = test: Foliar spread test for upland field; format: in vivo; conditions: foliar spray 500 ppm, 3 weeks, rank vs non-treated
Source text: as §1, §9, §10, §11, §4

corn [14] = test: Foliar spread test for upland field; format: in vivo; conditions: foliar spray 500 ppm, 3 weeks, rank vs non-treated
Source text: as §1, §9, §10, §11, §4

wheat [15] = test: Foliar spread test for upland field; format: in vivo; conditions: foliar spray 500 ppm, 3 weeks, rank vs non-treated
Source text: as §1, §9, §10, §11, §4

solgum [16] = test: Foliar spread test for upland field; format: in vivo; conditions: foliar spray 500 ppm, 3 weeks, rank vs non-treated
Source text: as §1, §9, §10, §11, §4

SMILES | Effects Barnyardgrass (barnyardgrass [1]) | Effects Cotton (cotton) | Effects Sugar beat (sugar beat [2]) | Effects Soybean (soybean) | Effects Corn (corn [3]) | Effects Wheat (wheat [4]) | Effects Solgum (solgum [5]) | Effect Monochoria (monochoria) | Effects Annual bluegrass (annual bluegrass) | Effect Bulrush (bulrush) | Effects Livid amaranth (livid amaranth [6]) | Effect Barnyardgrass (barnyardgrass [7]) | Effects Common lambsquarters (common lambsquartes [8]) | Effects Green foxtail (green foxtail) | Effect Young rice plant (young rice plant) | Effects Large crabgrass (Large crabgrass) | Effects Velvetleaf (velvetleaf [9]) | Effects Common lambsquarters (common lambsquartes [10]) | Effects Velvetleaf (velvetleaf [11]) | Effects Livid amaranth (livid amaranth [12]) | also measured
CCC(Oc1ccc(F)c(C(F)(F)F)c1)c1nc2ccc(Cl)cc2o1 (stereo not shown) [Compound 9] | 4 | 0 | 2 | 0 | 0 | 0 | 0 | 4 | 4 | 3 | 5 | 3 | 3 | 5 | 0 | 5 |  |  |  |  | Effects Blackgrass (blackgrass): 3
CCC(Oc1ccc(F)c(C(F)(F)F)c1)c1nc2ccc(F)cc2o1 (stereo not shown) [Compound 27] | 1 | 0 | 1 | 0 | 0 | 0 | 0 | 5 | 3 | 4 | 5 | 1 | 3 | 4 | 0 | 4 | 1 |  |  |  | 
CCCC(Oc1ccc(F)c(C(F)(F)F)c1)c1nc2cc(S(C)(=O)=O)ccc2o1 (stereo not shown) [Compound 217] |  | 1 | 5 | 0 | 0 | 0 | 0 | 4 | 4 | 2 | 5 |  | 5 | 5 | 1 | 5 | 5 |  |  |  | Effects Blackgrass (blackgrass): 2
CCC(Oc1cccc(C#N)c1)c1nc2cc(Cl)ccc2o1 (stereo not shown) [Compound 353] |  |  |  |  |  |  |  | 5 |  | 4 |  | 3 |  |  | 0 |  |  |  |  |  | 
CCCCC(Oc1ccc(F)c(C(F)(F)F)c1)c1nc2cc(Cl)ccc2o1 (stereo not shown) [Compound 476] |  | 0 | 3 | 0 | 0 | 0 | 0 |  | 4 |  | 5 |  | 3 | 4 |  | 3 | 2 | 5 | 2 | 5 | Effects Sugar beat (sugar beat [13]): 5; Effects Corn (corn [14]): 1; Effects Wheat (wheat [15]): 1; Effects Solgum (solgum [16]): 0
CCCC(Oc1cccc(C(F)(F)F)c1)c1nc2cc(S(C)(=O)=O)c(C)cc2o1 (stereo not shown) [Compound 489] |  | 0 | 5 | 0 | 1 | 0 | 0 |  | 5 |  | 5 |  | 4 | 4 |  | 2 | 3 | 5 | 3 | 5 | Effects Sugar beat (sugar beat [13]): 5; Effects Corn (corn [14]): 1; Effects Wheat (wheat [15]): 1; Effects Solgum (solgum [16]): 1
CCC(Oc1cccc(C(F)(F)F)c1)c1nc2cc(S(C)(=O)=O)c(C)cc2o1 (stereo not shown) [Compound 490] |  |  |  |  |  |  |  |  |  |  |  |  |  |  |  |  |  | 5 | 4 | 4 | Effects Sugar beat (sugar beat [13]): 4; Effects Corn (corn [14]): 1; Effects Wheat (wheat [15]): 1; Effects Solgum (solgum [16]): 1
CCCC(Oc1cccc(C#N)c1)c1nc2cc(F)c(Cl)cc2o1 (stereo not shown) [Compound 501] |  |  |  |  |  |  |  | 3 |  |  |  | 3 |  |  | 1 |  |  |  |  |  | 
CCC(Oc1ccc(F)c(C(F)(F)F)c1)c1nc2cc(C#N)c(Cl)cc2o1 (stereo not shown) [Compound 517] | 3 | 0 | 5 | 0 | 0 | 0 | 0 | 3 |  | 3 | 5 | 3 | 3 | 4 | 2 | 3 | 3 |  |  |  | 
